Source: patent US6924285B2, “Bicyclic heterocyclic compounds, pharmaceutical compositions containing these compounds, their use and process for preparing them” (Boehringer Ingelheim Pharma GmbH & Co., priority 2002, dated 2005)

What was measured:
[1] = molecular target: T1, human EGF-receptor kinase (Homo sapiens, UniProt P00533); experiment: Inhibition of human EGF-receptor kinase (enzyme assay, ELISA read-out); format: biochemical; conditions: cytoplasmic tyrosine kinase domain as GST fusion protein, substrate pEY/bio-pEY, 30 minutes at ambient temperature
T1 construct: GST; made in house; host or cells: Sf9 insect cells (baculovirus)
T1 sequence (P00533 688-1210): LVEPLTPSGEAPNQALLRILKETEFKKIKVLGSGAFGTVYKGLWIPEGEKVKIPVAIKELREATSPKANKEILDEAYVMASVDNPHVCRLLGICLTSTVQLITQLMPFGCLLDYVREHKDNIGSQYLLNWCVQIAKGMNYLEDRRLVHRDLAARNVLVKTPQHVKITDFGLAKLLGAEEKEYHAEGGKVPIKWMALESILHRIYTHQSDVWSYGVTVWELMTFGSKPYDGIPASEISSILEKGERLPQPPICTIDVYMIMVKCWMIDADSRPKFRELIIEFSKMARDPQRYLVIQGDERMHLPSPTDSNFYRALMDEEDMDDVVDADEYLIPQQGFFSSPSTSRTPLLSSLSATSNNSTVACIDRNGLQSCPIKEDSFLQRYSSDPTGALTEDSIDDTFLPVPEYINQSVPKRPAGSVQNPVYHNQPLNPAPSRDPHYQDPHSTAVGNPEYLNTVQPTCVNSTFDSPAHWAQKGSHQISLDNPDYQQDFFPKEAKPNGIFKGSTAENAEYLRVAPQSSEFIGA
Protocol: The inhibition of human EGF-receptor kinase was determined using the cytoplasmic tyrosine kinase domain (methionine 664 to alanine 1186 based on the sequence published in Nature 309 (1984), 418). For this the protein was expressed in Sf9 insect cells as GST fusion protein using the Baculovirus expression system.
The enzyme activity was measured in the presence or absence of the test compounds in serial dilutions. The polymer pEY (4:1) obtained from SIGMA was used as the substrate. Biotinylated pEY (bio-pEY) was added as the tracer substrate. 100 μl of reaction solution contained 10 μl of the inhibitor in 50% DMSO, 20 μl of the substrate solution (200 mM HEPES pH 7.4, 50 mM magnesium acetate, 2.5 mg/ml poly(EY), 5 μg/ml bio-pEY) and 20 μl of enzyme preparation. The enzyme reaction was started by the addition of 50 μl of a 100 μM ATP solution in 10 mM of magnesium chloride. The dilution of the enzyme preparation was adjusted so that the incorporation of phosphate in the bio-pEY was linear in terms of time and quantity of enzyme. The enzyme preparation was diluted in 20 mM HEPES pH 7.4, 1 mM EDTA, 130 mM common salt, 0.05% Triton X-100, 1 mM DTT and 10% glycerol.
The enzyme assays were carried out at ambient temperature over a period of 30 minutes and ended by the addition of 50 μl of a stopping solution (250 mM EDTA in 20 mM HEPES pH 7.4). 100 μl were placed on a streptavidine-coated microtitre plate and incubated for 60 minutes at ambient temperature. Then the plate was washed with 200 μl of a wash solution (50 mM Tris, 0.05% Tween 20). After the addition of 100 μl of an HRPO-labelled anti-PY antibody (PY20H Anti-PTyr:HRP made by Transduction Laboratories, 250 ng/ml) the preparation was incubated for 60 minutes. Then the microtitre plate was washed three times with 200 μl of wash solution. The samples were then combined with 100 μl of a TMB-peroxidase solution (A:B=1:1, Kirkegaard Perry Laboratories). After 10 minutes the reaction was stopped. The extinction was measured at OD450 nm with an ELISA reader. All the results were measured three times.
The data were adapted by iterative calculation using an analytical pogramme for sigmoidal curves (Graph Pad Prism Version 3.0) with a variable Hill pitch. […] The active substance concentration which inhibits the activity of EGF receptor kinase by 50% (IC50) was derived from the curves.

Compound: COc1cc2ncnc(Nc3ccc(F)c(Cl)c3)c2cc1O[C@H]1CC[C@@H](NS(C)(=O)=O)CC1 [Example 3, 4-[(3-chloro-4-fluoro-phenyl)amino]-6-(cis-4-methanesulphonylamino-cyclohexan-1-yloxy)-7-methoxy-quinazoline]
- melting point: 234 °C
- IC50 [1]: 900 pM
